# Test results from the supplement of paper PMC6580486.
# Counter-ions that a name gives are not always drawn.
# Key:
# [1] = tested on: FU-EPS-1
# Procedure: (§1)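 60-agent targeted drug screens (Drug Screen V3 on epithelioid sarcoma cultures PCB490-3/4/5, PCB495, EPS cell lines ESX, VA-ES-BJ, FU-EPS-1 and SkMc myoblasts; PPTI screen v2.1 on human UPS PCB197 and canine UPS S1-12). 384-well plates, 72 h, CellTiter-Glo viability; IC50 by Hill curve fit. 10000 nM = no IC50 achieved (top reported value).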
# [2] = tested on: PCB-490-3 (human epithelioid sarcoma primary culture)
# Procedure: as §1
# [3] = tested on: s1-12 (canine undifferentiated pleomorphic sarcoma culture)
# Procedure: as §1
# [4] = tested on: pcb-00197 (human undifferentiated pleomorphic sarcoma culture)
# Procedure: as §1
# [5] = tested on: ESX
# Procedure: as §1
# [6] = tested on: VA-ES-BJ
# Procedure: as §1
# [7] = tested on: PCB-490-5 (human epithelioid sarcoma primary culture)
# Procedure: as §1
# [8] = tested on: PCB-490-4 (human epithelioid sarcoma primary culture)
# Procedure: as §1
# [9] = tested on: PCB-495 (human epithelioid sarcoma primary culture)
# Procedure: as §1
# [10] = tested on: SkMc
# Procedure: as §1
SMILES,IC50 cell viability [1] [µM],IC50 cell viability [2] [µM],IC50 cell viability [3] [µM],IC50 cell viability [4] [µM],IC50 cell viability [5] [µM],IC50 cell viability [6] [µM],IC50 cell viability [7] [µM],IC50 cell viability [8] [µM],IC50 cell viability [9] [µM],IC50 cell viability [10] [µM]
COc1cc2nc(N3CCCN(C)CC3)nc(NC3CCN(Cc4ccccc4)CC3)c2cc1OC,1.01,3.14,1.72,6.05,0.2,6.57,6.69,1.82,1.38,0.15
Nc1ccccc1NC(=O)c1ccc(CNC(=O)OCc2cccnc2)cc1 [Entinostat],2.69,> 10,0.92,> 10,> 10,1.18,> 10,> 10,> 10,> 10
CC(C)(C(=O)NCC(F)(F)C(F)(F)F)C(=O)N[C@@H]1C(=O)Nc2ccccc2-c2ccccc21,> 10,> 10,> 10,> 10,> 10,> 10,> 10,> 10,> 10,3.76
CCOc1cc(C(C)(C)C)ccc1C1=N[C@@](C)(c2ccc(Cl)cc2)[C@@](C)(c2ccc(Cl)cc2)N1C(=O)N1CCN(CCCS(C)(=O)=O)CC1,> 10,> 10,> 10,> 10,> 10,> 10,> 10,> 10,> 10,> 10
Cc1ccc(Nc2nccc(N(C)c3ccc4c(C)n(C)nc4c3)n2)cc1S(N)(=O)=O [Pazopanib],> 10,> 10,,,> 10,> 10,> 10,> 10,> 10,> 10
Cc1ccc(-c2cc(C(F)(F)F)nn2-c2ccc(S(N)(=O)=O)cc2)cc1 [Celecoxib],> 10,> 10,,,> 10,> 10,> 10,> 10,> 10,> 10
CCc1cnn2c(NCc3ccc[n+]([O-])c3)cc(N3CCCC[C@H]3CCO)nc12 [Dinaciclib],> 10,> 10,0.01,> 10,0.01,0.01,> 10,0.1,0.01,> 10
CC(=O)c1c(C)c2cnc(Nc3ccc(N4CCNCC4)cn3)nc2n(C2CCCC2)c1=O,> 10,> 10,,,> 10,> 10,> 10,> 10,> 10,> 10
CCCc1c(OCCCOc2cc(O)c(-c3ccc(F)cc3)cc2CC)cccc1Oc1ccccc1C(=O)O,> 10,> 10,,,> 10,> 10,> 10,> 10,> 10,> 10
C[C@@H](Oc1ccc2[nH]nc(/C=C/c3cnn(CCO)c3)c2c1)c1c(Cl)cncc1Cl,> 10,1.73,,,4.52,> 10,0.46,0.5,0.19,> 10
COCC[n+]1c2c(n(Cc3cnccn3)c1C)C(=O)c1ccccc1C2=O [YM155],0.01,0.15,,,0.02,0.01,0.16,0.27,0.07,0.28
CC(C)n1nc(-c2ccc3oc(N)nc3c2)c2c(N)ncnc21 [INK 128],> 10,0.26,,,0.01,0.03,0.1,0.06,0.14,0.02
CCOC(=O)CCNc1cc(N2CCc3ccccc3CC2)nc(-c2ccccn2)n1 [GSK-J4 HCl],> 10,> 10,,,1.58,4.72,> 10,> 10,> 10,> 10
C=CCn1c(=O)c2cnc(Nc3ccc(N4CCN(C)CC4)cc3)nc2n1-c1cccc(C(C)(C)O)n1 [MK-1775],1.01,> 10,,,0.17,0.3,> 10,> 10,> 10,0.16
CO[C@@H]1[C@H](N(C)C(=O)c2ccccc2)C[C@H]2O[C@]1(C)n1c3ccccc3c3c4c(c5c6ccccc6n2c5c31)C(=O)NC4 [PKC412],> 10,> 10,,,6.4,1.8,1.73,1.25,1.36,> 10
CN1CCC(CNc2ccc3ncc(-c4cccc(OC(F)(F)F)c4)n3n2)CC1 [SGI-1776],1.7,4.5,,,0.15,4.81,1.85,2.03,7.51,2.84
Cc1ccc(S(=O)(=O)/C=C/C#N)cc1 [BAY-11-7082],> 10,> 10,,,> 10,0.49,0.77,1.93,> 10,> 10
C=C[C@@]1(C)CC(=O)[C@]2(O)[C@@]3(C)[C@@H](O)CCC(C)(C)[C@@H]3[C@H](O)[C@H](OC(C)=O)[C@@]2(C)O1 [Forskolin],> 10,> 10,,,> 10,> 10,> 10,> 10,> 10,> 10
CN(C(=O)c1ccc(F)cc1C(F)(F)F)C1CCN(c2nnc(-c3ccnn3C)c3ccccc23)CC1,> 10,> 10,,,> 10,> 10,> 10,> 10,> 10,> 10
CN(C)C(=N)NC(=N)N [Metformin HCL],> 10,> 10,,,> 10,> 10,> 10,> 10,> 10,> 10
C[C@]1(O)C[C@@H](c2nc(-c3ccc4ccc(-c5ccccc5)nc4c3)c3c(N)nccn32)C1 [OSI-906],> 10,> 10,1.07,> 10,0.02,> 10,> 10,> 10,> 10,> 10
Clc1ccc(NN=C(c2ccccc2)c2ccccn2)nc1 [JIB-04],2.4,> 10,,,0.6,1.69,1.62,3.73,1.14,1.41
CNC(=O)CN1CCC(Oc2cc3c(Nc4cccc(Cl)c4F)ncnc3cc2OC)CC1 [AZD8931],> 10,> 10,,,4.75,> 10,> 10,> 10,> 10,> 10
Cc1cc(Nc2cc(N3CCN(C)CC3)nc(Sc3ccc(NC(=O)C4CC4)cc3)n2)n[nH]1 [Tozasertib],> 10,> 10,,,> 10,> 10,> 10,3.33,> 10,2.62
